Results: PubChem BioAssay (NCI)
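The compound was tested at five concentrations on cells cultured in 96-well plates, with a 48-hour exposure period. Definition used: TGI = concentration required for complete inhibition of growth.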

Columns and labels:
Assay in all cases: NCI tumour cell line growth inhibition, 48 h
HOP-62 NSCLC = tested on: HOP-62 NSCLC
CCRF-CEM leukemia = tested on: CCRF-CEM leukemia
HT29 colon = tested on: HT29 colon
OVCAR-8 ovarian = tested on: OVCAR-8 ovarian
SK-OV-3 ovarian = tested on: SK-OV-3 ovarian
SK-MEL-2 melanoma = tested on: SK-MEL-2 melanoma
K-562 leukemia = tested on: K-562 leukemia
SN12C renal = tested on: SN12C renal
UACC-257 melanoma = tested on: UACC-257 melanoma
DMS 273 small cell lung = tested on: DMS 273 small cell lung
M14 melanoma = tested on: M14 melanoma
IGROV1 ovarian = tested on: IGROV1 ovarian
MALME-3M melanoma = tested on: MALME-3M melanoma
SNB-19 CNS = tested on: SNB-19 CNS
SNB-78 CNS = tested on: SNB-78 CNS
NCI-H460 lung = tested on: NCI-H460 lung
HL-60(TB) leukemia = tested on: HL-60(TB) leukemia
TK-10 renal = tested on: TK-10 renal
RPMI-8226 leukemia = tested on: RPMI-8226 leukemia
KM20L2 colon = tested on: KM20L2 colon
OVCAR-5 ovarian = tested on: OVCAR-5 ovarian
DLD-1 colon = tested on: DLD-1 colon
OVCAR-4 ovarian = tested on: OVCAR-4 ovarian
NCI-H522 lung = tested on: NCI-H522 lung
MOLT-4 leukemia = tested on: MOLT-4 leukemia
XF 498 CNS = tested on: XF 498 CNS
LXFL 529 NSCLC = tested on: LXFL 529 NSCLC
NCI-H226 lung = tested on: NCI-H226 lung
A498 renal = tested on: A498 renal
U251 CNS = tested on: U251 CNS
SF-295 CNS = tested on: SF-295 CNS
DMS 114 small cell lung = tested on: DMS 114 small cell lung
SK-MEL-28 melanoma = tested on: SK-MEL-28 melanoma
786-0 renal = tested on: 786-0 renal
HCT-116 colon = tested on: HCT-116 colon
ACHN renal = tested on: ACHN renal
HCC-2998 colon = tested on: HCC-2998 colon
SF-268 CNS = tested on: SF-268 CNS
LOX IMVI melanoma = tested on: LOX IMVI melanoma
SW-620 colon = tested on: SW-620 colon
SF-539 CNS = tested on: SF-539 CNS
HOP-92 NSCLC = tested on: HOP-92 NSCLC
UACC-62 melanoma = tested on: UACC-62 melanoma
RXF 393 renal = tested on: RXF 393 renal
KM12 colon = tested on: KM12 colon
HCT-15 colon = tested on: HCT-15 colon
SR leukemia = tested on: SR leukemia
HOP-18 NSCLC = tested on: HOP-18 NSCLC
EKVX NSCLC = tested on: EKVX NSCLC
SNB-75 CNS = tested on: SNB-75 CNS
UO-31 renal = tested on: UO-31 renal
NCI-H23 lung = tested on: NCI-H23 lung
OVCAR-3 ovarian = tested on: OVCAR-3 ovarian
M19-MEL melanoma = tested on: M19-MEL melanoma
COLO 205 colon = tested on: COLO 205 colon
SK-MEL-5 melanoma = tested on: SK-MEL-5 melanoma
A549 NSCLC = tested on: A549 NSCLC
CAKI-1 renal = tested on: CAKI-1 renal

Compound: CCCCCCCCCCCCOC(=S)NC
- TGI (HOP-62 NSCLC): 37.3 µM
- TGI (CCRF-CEM leukemia): > 100 µM
- TGI (HT29 colon): 33.1 µM
- TGI (OVCAR-8 ovarian): 32.9 µM
- TGI (SK-OV-3 ovarian): 58 µM
- TGI (SK-MEL-2 melanoma): 28.1 µM
- TGI (K-562 leukemia): 45.9 µM
- TGI (SN12C renal): 31.7 µM
- TGI (UACC-257 melanoma): 42.2 µM
- TGI (DMS 273 small cell lung): 34.4 µM
- TGI (M14 melanoma): 37.1 µM
- TGI (IGROV1 ovarian): 38.9 µM
- TGI (MALME-3M melanoma): 39.6 µM
- TGI (SNB-19 CNS): > 100 µM
- TGI (SNB-78 CNS): 61.8 µM
- TGI (NCI-H460 lung): 34 µM
- TGI (HL-60(TB) leukemia): > 100 µM
- TGI (TK-10 renal): 25.4 µM
- TGI (RPMI-8226 leukemia): 36.1 µM
- TGI (KM20L2 colon): 33.9 µM
- TGI (OVCAR-5 ovarian): 25.3 µM
- TGI (DLD-1 colon): 34.3 µM
- TGI (OVCAR-4 ovarian): 56 µM
- TGI (NCI-H522 lung): 58 µM
- TGI (MOLT-4 leukemia): 32.1 µM
- TGI (XF 498 CNS): 35.7 µM
- TGI (LXFL 529 NSCLC): 31.4 µM
- TGI (NCI-H226 lung): 15.2 µM
- TGI (A498 renal): 41.5 µM
- TGI (U251 CNS): 32.8 µM
- TGI (SF-295 CNS): 43.9 µM
- TGI (DMS 114 small cell lung): 37.5 µM
- TGI (SK-MEL-28 melanoma): 44 µM
- TGI (786-0 renal): 34.2 µM
- TGI (HCT-116 colon): 30.8 µM
- TGI (ACHN renal): 35.2 µM
- TGI (HCC-2998 colon): 32 µM
- TGI (SF-268 CNS): 36 µM
- TGI (LOX IMVI melanoma): 27.4 µM
- TGI (SW-620 colon): 32.6 µM
- TGI (SF-539 CNS): 33.5 µM
- TGI (HOP-92 NSCLC): 31.5 µM
- TGI (UACC-62 melanoma): 31 µM
- TGI (RXF 393 renal): 32.5 µM
- TGI (KM12 colon): 27.8 µM
- TGI (HCT-15 colon): 32.5 µM
- TGI (SR leukemia): 34.6 µM
- TGI (HOP-18 NSCLC): 50.1 µM
- TGI (EKVX NSCLC): 36.7 µM
- TGI (SNB-75 CNS): 74.6 µM
- TGI (UO-31 renal): 43.7 µM
- TGI (NCI-H23 lung): 40.9 µM

Compound: N=C(N)Cn1cnc2ccccc21
- TGI (HOP-62 NSCLC): > 100 µM
- TGI (CCRF-CEM leukemia): > 100 µM
- TGI (OVCAR-8 ovarian): > 100 µM
- TGI (SK-OV-3 ovarian): > 100 µM
- TGI (SK-MEL-2 melanoma): > 100 µM
- TGI (K-562 leukemia): > 100 µM
- TGI (SN12C renal): > 100 µM
- TGI (UACC-257 melanoma): > 100 µM
- TGI (M14 melanoma): > 100 µM
- TGI (IGROV1 ovarian): > 100 µM
- TGI (MALME-3M melanoma): > 100 µM
- TGI (OVCAR-3 ovarian): > 100 µM
- TGI (SNB-19 CNS): > 100 µM
- TGI (SNB-78 CNS): > 100 µM
- TGI (NCI-H460 lung): > 100 µM
- TGI (HL-60(TB) leukemia): > 100 µM
- TGI (TK-10 renal): > 100 µM
- TGI (M19-MEL melanoma): > 100 µM
- TGI (RPMI-8226 leukemia): > 100 µM
- TGI (KM20L2 colon): > 100 µM
- TGI (OVCAR-5 ovarian): > 100 µM
- TGI (NCI-H522 lung): > 100 µM
- TGI (MOLT-4 leukemia): > 100 µM
- TGI (LXFL 529 NSCLC): > 100 µM
- TGI (COLO 205 colon): > 100 µM
- TGI (NCI-H226 lung): > 100 µM
- TGI (A498 renal): > 100 µM
- TGI (U251 CNS): > 100 µM
- TGI (SF-295 CNS): > 100 µM
- TGI (DMS 114 small cell lung): > 100 µM
- TGI (SK-MEL-28 melanoma): > 100 µM
- TGI (786-0 renal): > 100 µM
- TGI (ACHN renal): > 100 µM
- TGI (HCC-2998 colon): > 100 µM
- TGI (SF-268 CNS): > 100 µM
- TGI (LOX IMVI melanoma): > 100 µM
- TGI (SW-620 colon): > 100 µM
- TGI (SF-539 CNS): > 100 µM
- TGI (SK-MEL-5 melanoma): > 100 µM
- TGI (UACC-62 melanoma): > 100 µM
- TGI (RXF 393 renal): > 100 µM
- TGI (A549 NSCLC): > 100 µM
- TGI (KM12 colon): > 100 µM
- TGI (HCT-15 colon): > 100 µM
- TGI (HOP-18 NSCLC): > 100 µM
- TGI (EKVX NSCLC): > 100 µM
- TGI (SNB-75 CNS): > 100 µM
- TGI (UO-31 renal): > 100 µM
- TGI (NCI-H23 lung): > 100 µM

Compound: CCN1CCC(O)(c2ccc(Cl)c(Cl)c2)C(C(=O)c2ccc(Cl)c(Cl)c2)C1 (stereo not drawn)
- TGI (HOP-62 NSCLC): 33.9 µM
- TGI (CCRF-CEM leukemia): 36.6 µM
- TGI (HT29 colon): 32.2 µM
- TGI (OVCAR-8 ovarian): 41 µM
- TGI (SK-OV-3 ovarian): 32.8 µM
- TGI (SK-MEL-2 melanoma): 31.9 µM
- TGI (K-562 leukemia): 37.7 µM
- TGI (SN12C renal): 35 µM
- TGI (UACC-257 melanoma): 32 µM
- TGI (DMS 273 small cell lung): 34 µM
- TGI (M14 melanoma): 30.9 µM
- TGI (IGROV1 ovarian): 41.3 µM
- TGI (MALME-3M melanoma): 33.6 µM
- TGI (OVCAR-3 ovarian): 27 µM
- TGI (SNB-19 CNS): 35.1 µM
- TGI (NCI-H460 lung): 43.6 µM
- TGI (HL-60(TB) leukemia): 33.4 µM
- TGI (TK-10 renal): 30.5 µM
- TGI (RPMI-8226 leukemia): 5.72 µM
- TGI (KM20L2 colon): 36.6 µM
- TGI (OVCAR-5 ovarian): 35.7 µM
- TGI (DLD-1 colon): 33 µM
- TGI (OVCAR-4 ovarian): 32.6 µM
- TGI (NCI-H522 lung): 13 µM
- TGI (MOLT-4 leukemia): 32.4 µM
- TGI (XF 498 CNS): 34.4 µM
- TGI (LXFL 529 NSCLC): 30.1 µM
- TGI (COLO 205 colon): 31.7 µM
- TGI (NCI-H226 lung): 40.1 µM
- TGI (A498 renal): 40.2 µM
- TGI (U251 CNS): 35.9 µM
- TGI (SF-295 CNS): 31.9 µM
- TGI (DMS 114 small cell lung): 33.9 µM
- TGI (SK-MEL-28 melanoma): 33 µM
- TGI (786-0 renal): 29.1 µM
- TGI (HCT-116 colon): 32.4 µM
- TGI (ACHN renal): 28.3 µM
- TGI (HCC-2998 colon): 35.1 µM
- TGI (SF-268 CNS): 38.6 µM
- TGI (LOX IMVI melanoma): 34 µM
- TGI (SW-620 colon): 38.7 µM
- TGI (CAKI-1 renal): 32.6 µM
- TGI (SF-539 CNS): 32.1 µM
- TGI (HOP-92 NSCLC): 29 µM
- TGI (SK-MEL-5 melanoma): 31.5 µM
- TGI (UACC-62 melanoma): 31.5 µM
- TGI (A549 NSCLC): 40.7 µM
- TGI (HCT-15 colon): 36.6 µM
- TGI (EKVX NSCLC): 33.6 µM
- TGI (SNB-75 CNS): 28.5 µM
- TGI (UO-31 renal): 31.4 µM
- TGI (NCI-H23 lung): 36.3 µM
